According to US20180312493A1, “Antibiotic Compounds, Pharmaceutical Formulations Thereof And Methods And Uses Therefor” (Simon Fraser University, priority 2015, published 2018):
In brackets after ≈: the same amount, converted by molar mass.

Columns and labels:
MRSA (ATCC BAA-1762) = experiment: In vitro susceptibility, broth microdilution (MIC); assay type: cell-based, methicillin resistant S. aureus; conditions: Staphylococcus aureus; MRSA ATCC BAA-1762; read-out: Antimicrobial activity (MIC) MRSA ATCC BAA1762
Outline: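 MIC determined by CLSI 2-fold broth microdilution in cation-adjusted Mueller–Hinton broth at ~2.5×10^5 CFU/ml, final compound 0.031–64 μg/ml, 18–24 h at 37 °C. MIC is the lowest concentration giving complete growth inhibition by background-corrected OD600 versus compound-free wells; duplicate or triplicate wells, replicated at least twice.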

S. aureus ATCC 29123 = experiment: Thigh infection model in neutropenic mice; assay type: in vivo, female CD-1 mice; conditions: thigh muscle, 10 mg/kg IV BID (2 and 8 h post-infection), 24 hr post infection
Description: The antimicrobial activity of compounds 23 and 60 against S. aureus ATCC 29123 was tested in vivo using a thigh infection model in neutropenic mice. Briefly, animals (female CD-1 mice, 5 weeks of age) were made neutropenic prior to S. aureus thigh infection by pre-treating with cyclophosphamide (150 mg/kg, IP, −4 and −1 days pre-inoculation). On the inoculation day (day 0), mice were infected with S. aureus at time zero (t=0). Animals were individually monitored for adverse reactions for 30 min post-infection.
Compounds 23 and 60 were prepared for IV administration and for oral administration. Vancomycin was administered as a solution in PBS. The test compounds were administered at 2 and 8 hours post-infection and animals were individually monitored for adverse reactions for 30 min after each injection. All animals were then monitored hourly from 20 hours post infection to the endpoint (t=24 hr post infection). At the indicated timepoint, animals were sacrificed and the injected thigh collected.
Quantitative enumeration of bacterial load was determined by plating serial dilutions from homogenized thigh muscles. The plates were incubated and colony counts were determined. CFU per mL calculated was calculated.

SMILES	MIC (MRSA (ATCC BAA-1762)) [µg/mL]	reduction in CFU (S. aureus ATCC 29123) [log]
C[N+](C)(C)CCON=C(c1c(-c2cc3cc(Cl)ccc3[nH]2)[nH]c2cc(Br)ccc12)C(F)(F)F (racemic) [Compound 221, 2-(((1-(6-Bromo-5′-chloro-1H,1′H-[2,2′-biindol]-3-yl)-2,2,2-trifluoroethylidene)amino)oxy)-N,N,N-trimethylethan-1-aminium Iodide]	2	–
CN(C)CCOC(=O)c1c(/C=C/c2ccc(Cl)cc2)[nH]c2cc(Br)ccc12 [Compound 60, (E)-2-(Dimethylamino)ethyl 6-bromo-2-(4-chlorostyryl)-1H-indole-3-carboxylate]	–	3
NCCOc1cc2[nH]c(-c3cc4ccc(Br)cc4[nH]3)cc2cc1Cl [Compound 201, 2-((6′-Bromo-5-chloro-1H,1′H-[2,2′-biindol]-6-yl)oxy)ethan-1-amine]	4 (≈ 9.88 µM)	–
NCCNC(=O)c1c(-c2cc3cc(Cl)ccc3[nH]2)[nH]c2cc(Br)ccc12 [Compound 206, N-(2-Aminoethyl)-6-bromo-5′-chloro-1H,1′H-[2,2′-biindole]-3-carboxamide]	8 (≈ 18.5 µM)	–
